Reference: patent US20240239790A1, “7-Morpholino-1,6-Naphthyridin-5-yl Derivatives and Pharmaceutical Compositions Thereof Useful as DNA-PK Inhibitor” (adMare Therapeutics Society, priority 2021, published 2024)

Target: T1, DNA-PK phosphorylation at Serine 2056 (Homo sapiens, UniProt P78527)
T1 construct: FaDu cells were purchased from ATCC; host or cells: FaDu
Assay: Cellular Assay for Inhibition of DNA-PK Phosphorylation at Serine 2056 in FaDu cells (sandwich ELISA, neocarzinostatin)
Type: cell-based
Conditions: pSer2056 DNA-PK, Table 3
Procedure: FaDu cells were purchased from ATCC and maintained in MEM alpha medium (Life Technologies, cat. no. 12561) supplemented with 10% fetal bovine serum, and 1% GlutaMAX at 37° C. supplemented with 5% CO2. 50,000 cells were seeded to each well of a 96-well cell culture plate in 50 μL of culture medium and incubated for 16-24 hours. Three-fold serially diluted compounds were prepared in DMSO. Culture media was used to prepare compound treatments to 0.3% DMSO (dimethyl sulphoxide) content. Compound treatments were added to the cells for 1 hour prior incubation, followed by the addition of neocarzinostatin in fresh culture medium to 1 μg/mL final concentration for an additional 2 hours incubation to induce DNA DSBs (double-strand breaks). DMSO controls were incubated with fresh culture medium alone for the additional two hours incubation. The cells were then lysed and frozen at −20° C. Cell lysates were thawed on wet ice and protein concentrations quantified by BCA Protein Assay (Thermo #23225). Lysis buffer was used to normalize lysates by protein content and all lysates were then investigated by sandwich ELISA by means of DNA-PK-specific antibodies (Abcam ab44815: total DNA-PK; ab124918: phosphoserine-2056 DNA-PK) in sandwich ELISA format on the MSD S600MM platform (MesoScale Discovery). % inhibition was calculated for all data points: =1−(DATA_PT−AVERAGE(DMSO controls))/(AVERAGE(NCS controls)−AVERAGE(DMSO controls)). Logarithm of the molar concentration of compound was plotted against percent inhibition to calculate IC50 values, with curve fit settings for data fit to log(inhibitor) vs. normalized response—Variable slope using curve fit software (GraphPad Prism).

SMILES	IC50 [nM]
CN1CCN(c2ccc(N[C@H]3CC[C@@H](Oc4nc(N5CCOCC5)cc5ncc(NS(C)(=O)=O)cc45)CC3)nc2)CC1 [LFA2001, N-[5-[4-[[5-(4-methylpiperazin-1-yl)-2-pyridyl]amino]cyclohexoxy]-7-morpholino-1,6-naphthyridin-3-yl]methanesulfonamide]	< 100
CS(=O)(=O)Nc1cnc2cc(N3CCOCC3)nc(O[C@H]3CC[C@@H](Nc4cc5c(cn4)CNCC5)CC3)c2c1 [LFA2002, N-[7-morpholino-5-[4-(5,6,7,8-tetrahydro-2,7-naphthyridin-3-ylamino)cyclohexoxy]-1,6-naphthyridin-3-yl]methanesulfonamide]	100 to 1000
CS(=O)(=O)Nc1cnc2cc(N3CCOCC3)nc(O[C@H]3CC[C@@H](Nc4ccc5c(n4)CCNC5)CC3)c2c1 [LFA2003, N-[7-morpholino-5-[4-(5,6,7,8-tetrahydro-1,6-naphthyridin-2-ylamino)cyclohexoxy]-1,6-naphthyridin-3-yl]methanesulfonamide]	100 to 1000
CS(=O)(=O)Nc1cnc2cc(N3CCOCC3)nc(O[C@H]3CC[C@@H](Nc4ncc5c(n4)CNCC5)CC3)c2c1 [LFA2004, N-[7-morpholino-5-[4-(5,6,7,8-tetrahydropyrido[3,4-d]pyrimidin-2-ylamino)cyclohexoxy]-1,6-naphthyridin-3-yl]methanesulfonamide]	100 to 1000
CS(=O)(=O)Nc1cnc2cc(N3CCOCC3)nc(O[C@H]3CC[C@@H](Nc4ncc5c(n4)CCNC5)CC3)c2c1 [LFA2005, N-[7-morpholino-5-[4-(5,6,7,8-tetrahydropyrido[4,3-d]pyrimidin-2-ylamino)cyclohexoxy]-1,6-naphthyridin-3-yl]methanesulfonamide]	100 to 1000
CN1CCC(Oc2ccc(N[C@H]3CC[C@@H](Oc4nc(N5CCOCC5)cc5ncc(NS(C)(=O)=O)cc45)CC3)nc2)C1 (stereo partly drawn) [LFA2006, N-[5-[4-[[5-(1-methylpyrrolidin-3-yl)oxy-2-pyridyl]amino]cyclohexoxy]-7-morpholino-1,6-naphthyridin-3-yl]methanesulfonamide]	< 100
CN1CCc2nc(NC3CCC(Oc4nc(N5CCOCC5)cc5ncc(NS(C)(=O)=O)cc45)CC3)ncc2C1 (stereo not drawn) [LFA2007, N-[5-[4-[(6-methyl-7,8-dihydro-5H-pyrido[4,3-d]pyrimidin-2-yl)amino]cyclohexoxy]-7-morpholino-1,6-naphthyridin-3-yl]methanesulfonamide]	< 100
CN1CCc2nc(N[C@H]3CC[C@@H](Oc4nc(N5CCOCC5)cc5ncc(NS(C)(=O)=O)cc45)CC3)ccc2C1 [LFA2008, N-[5-[4-[(6-methyl-7,8-dihydro-5H-1,6-naphthyridin-2-yl)amino]cyclohexoxy]-7-morpholino-1,6-naphthyridin-3-yl]methanesulfonamide]	< 100
Oc1cnc2cc(N3CCOCC3)nc(O[C@H]3CC[C@@H](Nc4ncc(N5CCN(CC(F)F)CC5)cn4)CC3)c2c1 [LFA2012]	< 100
CS(=O)(=O)Nc1cnc2cc(N3CCOCC3)nc(O[C@H]3CC[C@@H](Nc4ncc(N5CC6CCC(C5)N6)cn4)CC3)c2c1 [LFA2016, N-[5-[4-[[5-(3,8-diazabicyclo[3.2.1]octan-3-yl)pyrimidin-2-yl]amino]cyclohexoxy]-7-morpholino-1,6-naphthyridin-3-yl]methanesulfonamide]	100 to 1000
CS(=O)(=O)Nc1cnc2cc(N3CCOCC3)nc(O[C@H]3CC[C@@H](Nc4ncc(N5CCN(CC(F)(F)F)CC5)cn4)CC3)c2c1 [LFA2017, N-[7-morpholino-5-[4-[[5-[4-(2,2,2-trifluoroethyl)piperazin-1-yl]pyrimidin-2-yl]amino]cyclohexoxy]-1,6-naphthyridin-3-yl]methanesulfonamide]	< 100
CS(=O)(=O)Nc1cnc2cc(N3CCOCC3)nc(O[C@H]3CC[C@@H](Nc4ncc(CN5CCOCC5)cn4)CC3)c2c1 [LFA2020, N-[7-morpholino-5-[4-[[5-(morpholinomethyl)pyrimidin-2-yl]amino]cyclohexoxy]-1,6-naphthyridin-3-yl]methanesulfonamide]	< 100
CS(=O)(=O)Nc1cnc2cc(N3CCOCC3)nc(O[C@H]3CC[C@@H](Nc4ncc(OCCN5CCNCC5)cn4)CC3)c2c1 [LFA2022, N-[7-morpholino-5-[4-[[5-(2-piperazin-1-ylethoxy)pyrimidin-2-yl]amino]cyclohexoxy]-1,6-naphthyridin-3-yl]methanesulfonamide]	< 100
CS(=O)(=O)Nc1cnc2cc(N3CCOCC3)nc(O[C@H]3CC[C@@H](Nc4ncc(OCCN5CCOCC5)cn4)CC3)c2c1 [LFA2023, N-[7-morpholino-5-[4-[[5-(2-morpholinoethoxy)pyrimidin-2-yl]amino]cyclohexoxy]-1,6-naphthyridin-3-yl]methanesulfonamide]	< 100
CN(C)CCOc1cnc(N[C@H]2CC[C@@H](Oc3nc(N4CCOCC4)cc4ncc(NS(C)(=O)=O)cc34)CC2)nc1 [LFA2024, N-[5-[4-[[5-[2-(dimethylamino)ethoxy]pyrimidin-2-yl]amino]cyclohexoxy]-7-morpholino-1,6-naphthyridin-3-yl]methanesulfonamide]	100 to 1000
CN1CCN(CCOc2ccnc(N[C@H]3CC[C@@H](Oc4nc(N5CCOCC5)cc5ncc(NS(C)(=O)=O)cc45)CC3)n2)CC1 [LFA2026, N-[5-[4-[[4-[2-(4-methylpiperazin-1-yl)ethoxy]pyrimidin-2-yl]amino]cyclohexoxy]-7-morpholino-1,6-naphthyridin-3-yl]methanesulfonamide]	100 to 1000
CS(=O)(=O)Nc1cnc2cc(N3CCOCC3)nc(O[C@H]3CC[C@@H](Nc4ncc(OCCN)cn4)CC3)c2c1 [LFA2027, N-[5-[4-[[5-(2-aminoethoxy)pyrimidin-2-yl]amino]cyclohexoxy]-7-morpholino-1,6-naphthyridin-3-yl]methanesulfonamide]	< 100
CS(=O)(=O)Nc1cnc2cc(N3CCOCC3)nc(O[C@H]3CC[C@@H](Nc4ncc(OCCO)cn4)CC3)c2c1 [LFA2028, N-[5-[4-[[5-(2-hydroxyethoxy)pyrimidin-2-yl]amino]cyclohexoxy]-7-morpholino-1,6-naphthyridin-3-yl]methanesulfonamide]	< 100
CS(=O)(=O)Nc1cnc2cc(N3CCOCC3)nc(O[C@H]3CC[C@@H](Nc4ncc(CCN5CCOCC5)cn4)CC3)c2c1 [LFA2030, N-[7-morpholino-5-[4-[[5-(2-morpholinoethyl)pyrimidin-2-yl]amino]cyclohexoxy]-1,6-naphthyridin-3-yl]methanesulfonamide]	< 100

Results, then the compound that gave them:

IC50 [nM]	SMILES
< 100	CS(=O)(=O)Nc1cnc2cc(N3CCOCC3)nc(O[C@H]3CC[C@@H](Nc4ncc(N5CCN(CCF)CC5)cn4)CC3)c2c1 [LFA2013]
100 to 1000	CS(=O)(=O)Nc1cnc2cc(N3CCOCC3)nc(O[C@H]3CC[C@@H](Nc4ncc(N5CCNCC5)cn4)CC3)c2c1 [LFA2014, N-[7-morpholino-5-[4-[(5-piperazin-1-ylpyrimidin-2-yl)amino]cyclohexoxy]-1,6-naphthyridin-3-yl]methanesulfonamide]
100 to 1000	CS(=O)(=O)Nc1cnc2cc(N3CCOCC3)nc(O[C@H]3CC[C@@H](Nc4ncc(N5CC6CNCC6C5)cn4)CC3)c2c1 (stereo partly drawn) [LFA2015, N-[5-[4-[[5-(2,3,3a,4,6,6a-hexahydro-1H-pyrrolo[3,4-c]pyrrol-5-yl)pyrimidin-2-yl]amino]cyclohexoxy]-7-morpholino-1,6-naphthyridin-3-yl]methanesulfonamide]
< 100	CS(=O)(=O)Nc1cnc2cc(N3CCOCC3)nc(O[C@H]3CC[C@@H](Nc4ncc(N5CCN(CC(F)F)CC5)cn4)CC3)c2c1 [LFA2018, N-[5-[4-[[5-[4-(2,2-difluoroethyl)piperazin-1-yl]pyrimidin-2-yl]amino]cyclohexoxy]-7-morpholino-1,6-naphthyridin-3-yl]methanesulfonamide]
< 100	CS(=O)(=O)Nc1cnc2cc(N3CCOCC3)nc(O[C@H]3CC[C@@H](Nc4ncc(N5CCN(C6COC6)CC5)cn4)CC3)c2c1 [LFA2019, N-[7-morpholino-5-[4-[[5-[4-(oxetan-3-yl)piperazin-1-yl]pyrimidin-2-yl]amino]cyclohexoxy]-1,6-naphthyridin-3-yl]methanesulfonamide]
100 to 1000	CS(=O)(=O)Nc1cnc2cc(N3CCOCC3)nc(O[C@H]3CC[C@@H](Nc4ncc(C5=CCNCC5)cn4)CC3)c2c1 [LFA2021, N-[7-morpholino-5-[4-[[5-(1,2,3,6-tetrahydropyridin-4-yl)pyrimidin-2-yl]amino]cyclohexoxy]-1,6-naphthyridin-3-yl]methanesulfonamide]
100 to 1000	CN1CCC(Oc2cnc(N[C@H]3CC[C@@H](Oc4nc(N5CCOCC5)cc5ncc(NS(C)(=O)=O)cc45)CC3)nc2)C1 (stereo partly drawn) [LFA2025, N-[5-[4-[[5-(1-methylpyrrolidin-3-yl)oxypyrimidin-2-yl]amino]cyclohexoxy]-7-morpholino-1,6-naphthyridin-3-yl]methanesulfonamide]
< 100	CS(=O)(=O)Nc1cnc2cc(N3CCOCC3)nc(O[C@H]3CC[C@@H](Nc4ncc(N5CCOCC5)cn4)CC3)c2c1 [LFA2029, N-[7-morpholino-5-[4-[(5-morpholinopyrimidin-2-yl)amino]cyclohexoxy]-1,6-naphthyridin-3-yl]methanesulfonamide]
